Results from patent publication US20090170930A1, “METHODS FOR DIRECTING DIFFERENTIATION OF CLONOGENIC NEURAL STEM CELLS WITH COUMARINS” (THE SECOND MILITARY MEDICAL UNIVERSITY, priority 2006, published 2009).

Assays:
[1] = system: Rat NSCs; experiment: NG2 immunocytochemistry cell count: differentiation of NSCs to NG2 positive cells (OPCs); format: cell-based; settings: NSC neurospheres, mean±S.D.
Experimental: (§1) Rat NSCs isolation and culture were performed as described by Weiss et al (Weiss et al., 1996). Briefly, the cortex of 1- to 2-day-old newborn SD rats were removed and placed into sterile chilled Hank's Balanced Salt Solution. After the meninges were carefully removed, tissues were cut into tiny pieces and gently triturated with a Pasteur pipette at least 10-15 times. The suspended tissue was centrifuged at 500 g for 5 min and the pellets were re-suspended in a proliferation medium (DMEM/F12 nutrient (1:1) with additional 2% B27 (Invitrogen Corporation, Carlsbad, Calif.) supplement and 20 ng/mL bFGF (PeproTech, Rocky Hill, N.J.)). The cells were plated at a density of 50 cells/mL in non-coated […] flasks. Every 4 days, bFGF was added along with a partial medium change. After 7 days in vitro, cells formed floating neurospheres. To subculture NSCs, the neurospheres were centrifuged at 600 g for 5 min when the diameters of neurospheres reached a size of approximately 100-200 μm; they were then re-suspended in fresh medium and mechanically dissociated into single cells. Single cells subsequently were seeded into proliferation medium at a density of 10 cells/mL per flask. This procedure produced a second generation of neurospheres, and additional generations of NSCs were produced using this same procedure.
Neurospheres were plated into 12-well plates on poly-D-lysine coated 35 mm dishes at a density of 10-20 spheres per dish in 1.5 mL medium. 1 hour after plating, compounds were added at a final concentration 100 μM unless otherwise indicated. After 5 days, cells were examined with Phase contrast image or immunocytochemistry.
Identification of the different kinds of cells was performed using indirect immunocytochemistry. Cells on dishes were fixed with 4% paraformaldehyde at room temperature for 20 min and washed three times in succession with 0.01 M PBS for 5 min each time. Cells were then treated with 0.3% Triton 100 containing 10% normal goat serum at room temperature for 30 min (Xu et al., 2006). Cells were then incubated with primary antibodies at 4° C. for 12-16 h and washed three times with 0.01 M phosphate buffered saline (PBS) for 5 min each time. FITC-conjugated secondary antibodies were added to the cells, and the cells were incubated at 37° C. for 40 min. After three 5 min PBS washes, Hochest 33258 nuclear stain was added at room temperature for 10 min, followed by two more 5 min PBS rinses. The dishes were examined by a fluorescence microscopy. The primary antibodies included anti-GFAP (1:200; rabbit; Promega), anti-nestin (1:500; Mouse; Chemicon); anti-NG2(1:200; Mouse; Chemicon), anti-MBP (1:50; Mouse; Chemicon), anti-04 (1:100; Mouse; Chemicon), anti-RIP (1:100; Mouse; Chemicon), anti-olig2 (1:100; rabbit; Abcam). The secondary antibodies were FITC-labeled antibodies to rabbit IgG (1:200) and TRITIC-labeled antibodies to mouse IgG (1:200). Immunostained preparations were examined with an IX70 Olympus microscope equipped for phase contrast and epi-fluorescence. Light from a 75 W xenon arc lamp (AH2-RX, Olympus) passed through filter sets (Chroma) to generate excited light for Hochest 33258, FITC and TRITIC stains. All image acquisitions were finished with computer-controlled CCD (Micromax 5 MHz system, Roper Princeton Instruments) and MetaMorph Imaging System version 3.6 (Universal Imaging Corporation). To determine the number of cells expressing a particular antigen, 100 fields per sample were examined and totaled. Observers without knowledge of the treatment condition counted the numbers of positive cells for NG2, compared to total numbers of progeny of NSCs determined by counting Hochest 33258 staining cell nuclei. Results are given as mean±S.D. of data for six samples from three independent experiments. Statistical analyses were carried out using Student's t-test with SPSS software (Version 10.1). […]

[2] = system: NSCs; experiment: Primary compound screen of NSCs, phase contrast morphology; format: cell-based, rat; settings: 100 μM, 5 days, phase contrast microscope
Experimental: as §1, with “procedure. […]” for “procedure.”

| Compound | The ratio of NG2 positive cells of the total cells (%) ([1]; Dose 1 μM) | The ratio of NG2 positive cells of the total cells (%) ([1]; Dose 10 μM) | The ratio of NG2 positive cells of the total cells (%) ([1]; Dose 100 μM) | The ratio of NG2 positive cells of the total cells (%) ([1]; Dose 1 mM) | The ratio of NG2 positive cells of the total cells (%) ([1]; Dose 1 μM, listed as daphnoretin) | The ratio of NG2 positive cells of the total cells (%) ([1]; Dose 10 μM, listed as daphnoretin) | The ratio of NG2 positive cells of the total cells (%) ([1]; Dose 100 μM, listed as daphnoretin) | The ratio of NG2 positive cells of the total cells (%) ([1]; Dose 1 mM, listed as daphnoretin) | generation of round bipolar or multipolar morphology cells (probably OPCs) [2] |
| --- | --- | --- | --- | --- | --- | --- | --- | --- | --- |
| O=c1ccc2ccc(O)cc2o1 [7-hydroxycoumarin] | 68 ± 6.5 % | 76 ± 6.6 % | 89 ± 9.3 % | 92 ± 8.7 % | – | – | – | – | – |
| COc1ccc2ccc(=O)oc2c1 [7-methoxy coumarin] | 16.7 ± 2.2% | 1% | 1% | 1% | – | – | – | – | – |
| O=c1ccc2cc(O)c(O)cc2o1 [Aesculetin] | 53 ± 2.4 % | 63 ± 2.9 % | 68 ± 2.7 % | 75 ± 1.6 % | – | – | – | – | – |
| COc1cc2oc(=O)cc(-c3ccccc3)c2cc1O [Dalbergin] | 1% | 1% | 1% | 1% | – | – | – | – | – |
| COc1cc2cc(Oc3ccc4ccc(=O)oc4c3)c(=O)oc2cc1O[C@@H]1O[C@H](CO)[C@@H](O)[C@H](O)[C@H]1O [Daphnoretin-7-O-β-D-glucopyranoside] | 1% | 1% | 1% | 1% | – | – | – | – | – |
| COc1cc2cc(Oc3ccc4ccc(=O)oc4c3)c(=O)oc2cc1O [Daphnoretin] | 65 ± 5.3 % | 87 ± 7.5 % | 92 ± 8.6 % | 95 ± 6.9 % | 65±5.3% | 87±7.5% | 92±8.6% | 95±6.9% | markedly enhance the generation of round bipolar or multipolar morphology cells |
| O=c1ccc2ccc(Oc3cc4ccc(O)cc4oc3=O)cc2o1 [Edgeworin] | 60 ± 2.6 % | 63 ± 2.9 % | 68 ± 3.5 % | 81 ± 3.1 % | – | – | – | – | – |
| C[C@@H]1O[C@@H](Oc2ccc3ccc(=O)oc3c2-c2c(O)ccc3ccc(=O)oc23)[C@H](O)[C@H](O)[C@H]1O [Edgeworoside C] | 1% | 1% | 1% | 1% | – | – | – | – | – |
| O=c1ccc2cc(O[C@@H]3O[C@H](CO)[C@@H](O)[C@H](O)[C@H]3O)c(O)cc2o1 [Esculetin-6-β-D-glucopyranoside] | 67 ± 4.6 % | 72 ± 3.5 % | 70 ± 3.9 % | 85 ± 5.2 % | – | – | – | – | – |
| COc1cc(O)c2c(=O)cc(-c3ccc(O)cc3)oc2c1 [Genkwanin] | 23 ± 2.3% | 1% | 1% | 1% | – | – | – | – | – |
| COc1cc2cc(Oc3ccc4ccc(=O)oc4c3)c(=O)oc2cc1OC [Isodaphnoretin] | 15.6 ± 1.8% | 1% | 1% | 1% | – | – | – | – | – |
| COc1cc2ccc(=O)oc2cc1O [Scopoletin] | 62 ± 5.6 % | 63 ± 6.3 % | 70 ± 6.9 % | 68 ± 6.7 % | – | – | – | – | – |
| Isopsoralen | 21 ± 1.6% | 1% | 1% | 1% | – | – | – | – | – |
